# Experimental data published in patent US7361662B2, “Pyridopyrimidinone compounds, method for production thereof and medicaments comprising the same” (Les Laboratoires Servier, priority 2002, dated 2008).
# System: obese ob/ob mouse (model of obesity-associated insulin resistance)
# Experiment: Hypolipaemic activity in the obese ob/ob mouse
# Format: in vivo
# Description: The products of the invention were tested in vivo in the obese ob/ob mouse, used as a model of obesity-associated insulin resistance.
Structure (SMILES),reduction of triglycerides (125 mg/kg per os),reduction of triglycerides (250 mg/kg per os)
"CCCN(CCC)c1nc2c(N3CCCCCC3)nc(N3CCOCC3)cc2c(=O)[nH]1 [Example 6, 8-(1-Azepanyl)-2-(dipropylamino)-6-(4-morpholinyl)pyrido[3,4-d]pyrimidin-4(3H)-one]",significantly reduces the triglycerides,
CN(C)C(=N)N=C(N)N [metformin],,the same reduction is obtained
